Series [1] relates to Puccinia recondita f. Sp. Tritici. The series can be described thus: Puccinia recondita f. sp. tritici / wheat / leaf disc preventative (brown rust). It is filed as in vivo. The settings on record: foliar, 168 h, 200 ppm in the applied formulation, wheat leaf segments cv. Kanzler, preventative, inoculated 1 day after application, assessed 7 to 9 days after application, vs untreated, read-out: disease control. In a few lines:
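Wheat cv. Kanzler leaf segments on agar were sprayed with formulated compound in water, then inoculated with spores 1 day later. Incubated at 19° C, 75% rh, 12 h light/12 h dark; percent disease control versus untreated scored 7 to 9 days after application.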

For series [2] the test system is unchanged. The series can be described thus: Puccinia recondita f. sp. tritici / wheat / leaf disc curative (brown rust). It is filed as in vivo. The settings on record: foliar, 144 h, 200 ppm in the applied formulation, wheat leaf segments cv. Kanzler, applied 1 day after inoculation, assessed 6 to 8 days after application, vs untreated, read-out: disease control. The method in brief: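 Wheat cv. Kanzler leaf segments on agar were inoculated with fungal spore suspension, held dark at 19° C and 75% RH, then sprayed 1 day later with formulated compound diluted in water. Incubation continued at 19° C, 75% RH, 12 h light/12 h dark; percent disease control versus untreated was scored 6 to 8 days after application.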

For series [3], the system named is Phakopsora pachyrhizi. In words: Phakopsora pachyrhizi / soybean / leaf disc preventative (Asian soybean rust). It is filed as in vivo. Particulars: foliar, 288 h, 200 ppm in the applied formulation, soybean leaf disks, inoculated one day after application, assessed 12 to 14 days after application, vs untreated, read-out: disease control. In a few lines: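 Read-out is percent disease control relative to untreated check discs, assessed once untreated discs show adequate disease, 12 to 14 days after application. Compounds, tested at 200 ppm in the applied formulation, are sprayed onto soybean leaf discs one day before inoculation with a spore suspension.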

The subject of series [4] is Glomerella Lagenarium (Colletotrichum Lagenarium). The series can be described thus: Glomerella lagenarium (Colletotrichum lagenarium) liquid culture / cucumber / preventative (anthracnose). The settings on record: Colletotrichum orbiculare; 20 ppm in the applied formulation; liquid culture in PDB, 24° C., inhibition of growth measured photometrically 3 to 4 days after application, vs untreated; read-out: disease control. It is filed as cell-based. The method in brief:
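Conidia from cryogenic storage were mixed into potato dextrose broth. This was added to compound diluted from DMSO into 0.025% Tween20, tested at 20 ppm. Plates were incubated in the dark at 24 °C and 96% relative humidity, and growth was read photometrically after 2–7 days as % activity versus untreated check.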

The test system of series [5] is Uromyces viciae-Fabae. In words: Uromyces viciae-fabae / field bean / leaf disc preventative (faba-bean rust). It is filed as in vivo. The settings on record: foliar, 288 h, 100 ppm in the applied formulation, field bean leaf discs, inoculated two hours after application, assessed 12 days after application, vs untreated, read-out: disease control. On the procedure: Leaf disks or leaf segments of various plant species are cut from plants grown in a greenhouse. The cut leaf disks or segments are placed in multiwell plates (24-well format) onto water agar. The leaf disks are sprayed with a test solution before (preventative) or after (curative) inoculation. Compounds to be tested are prepared as DMSO solutions (max. 10 mg/ml) which are diluted to the appropriate concentration with 0.025% Tween20 just before spraying. The inoculated leaf disks or segments are incubated under defined conditions (temperature, relative humidity, light, etc.) according to the respective test system. A single evaluation of disease level is carried out 3 to 14 days after inoculation, depending on the pathosystem. Percent disease control relative to the untreated check leaf disks or segments is then calculated.
Field bean leaf discs are placed on water agar in multiwell plates (96-well format) and 10 μl of the formulated test compound diluted in acetone and a spreader pipetted onto the leaf disc. Two hours after application leaf discs are inoculated by spraying a spore suspension on the lower leaf surface. The leaf discs are incubated in a climate cabinet at 22° C. with 18 hour day and 70% relative humidity. The activity of a compound is assessed as percent disease control compared to untreated when an appropriate level of disease damage appears in untreated check leaf disks (12 days after application).
The following compounds at 100 ppm in the applied formulation give at least 80% disease control in this test when compared to untreated control leaf discs under the same conditions, which show extensive disease development.

Drawing on patent US10798941B2, “Microbiocidal oxadiazole derivatives” (SYNGENTA PARTICIPATIONS AG, priority 2016, dated 2020), this text covers pest or weed control, inhibition of growth and melting point for 15 compounds.

As a reminder, the melting point is the temperature, or range, at which the solid turns liquid.

Compound `CCn1cc(-c2cn(Cc3ccc(-c4noc(C(F)(F)F)n4)cc3)nn2)c(C)n1` [Compound 1.1, 3-[4-[[4-(1-ethyl-3-methyl-pyrazol-4-yl)triazol-1-yl]methyl]phenyl]-5-(trifluoromethyl)-1,2,4-oxadiazole] had a melting point of 116.2 to 118.2 °C. In addition, the pest or weed control at 200 ppm in series [1] is at least 80%. Further, in series [2], the pest or weed control at 200 ppm was at least 80%. Moreover, the pest or weed control at 200 ppm in series [3] is at least 80%. For the same compound, the inhibition of growth at 20 ppm in series [4] is at least 80%. Besides, the pest or weed control at 100 ppm in series [5] was at least 80%.
The compound `CCn1ncc(-c2cn(Cc3ccc(-c4noc(C(F)(F)F)n4)cc3)nn2)c1C` [Compound 1.2, 3-[4-[[4-(1-ethyl-5-methyl-pyrazol-4-yl)triazol-1-yl]methyl]phenyl]-5-(trifluoromethyl)-1,2,4-oxadiazole] showed a melting point of 138.3 to 140.1 °C. Besides, the pest or weed control at 200 ppm in series [1] is at least 80%. Also, in series [2], the pest or weed control at 200 ppm was at least 80%. Besides, the pest or weed control at 200 ppm in series [3] is at least 80%. In series [4], the inhibition of growth at 20 ppm is at least 80%. Further, the pest or weed control at 100 ppm in series [5] is at least 80%.
As to `FC(F)(F)c1nc(-c2ccc(Cn3nncc3-c3ccccc3)cc2)no1` [Compound 1.3, 3-[4-[(5-phenyltriazol-1-yl)methyl]phenyl]-5-(trifluoromethyl)-1,2,4-oxadiazole], the pest or weed control at 200 ppm in series [1], in series [2] and in series [3] was at least 80% in each case. In series [4], the inhibition of growth at 20 ppm was at least 80%. Also, the pest or weed control at 100 ppm in series [5] is at least 80%.
`FC(F)(F)c1nc(-c2ccc(Cn3cc(-c4ccccc4)nn3)cc2)no1` [Compound 1.4, 3-[4-[(4-phenyltriazol-1-yl)methyl]phenyl]-5-(trifluoromethyl)-1,2,4-oxadiazole]: the melting point is 161.5 to 164.4 °C. In addition, the pest or weed control at 200 ppm in series [1] was at least 80%. Also, the pest or weed control at 200 ppm in series [3] is at least 80%. For the same compound, the inhibition of growth at 20 ppm in series [4] is at least 80%. In series [5], the pest or weed control at 100 ppm is at least 80%.
On to `FC(F)(F)c1nc(-c2ccc(Cn3cc(C4CC4)nn3)cc2)no1` [Compound 1.5, 3-[4-[(4-cyclopropyltriazol-1-yl)methyl]phenyl]-5-(trifluoromethyl)-1,2,4-oxadiazole], for which the melting point is 115.5 to 117.2 °C. Also, the pest or weed control at 200 ppm in series [1] was at least 80%. Also, the pest or weed control at 200 ppm in series [2] was at least 80%. The pest or weed control at 200 ppm in series [3] is at least 80%. The inhibition of growth at 20 ppm in series [4] is at least 80%. The pest or weed control at 100 ppm in series [5] was at least 80%.
Consider `Cn1cncc1-c1cn(Cc2ccc(-c3noc(C(F)(F)F)n3)cc2)nn1` [Compound 1.6, 3-[4-[[4-(3-methylimidazol-4-yl)triazol-1-yl]methyl]phenyl]-5-(trifluoromethyl)-1,2,4-oxadiazole], for which the melting point was in the range of 108.7 to 110.3 °C. The pest or weed control at 200 ppm in series [1] is at least 80%. For the same compound, the pest or weed control at 200 ppm in series [2] was at least 80%. The pest or weed control at 200 ppm in series [3] is at least 80%. The inhibition of growth at 20 ppm in series [4] was at least 80%. In series [5], the pest or weed control at 100 ppm was at least 80%.
`CC(=O)OCc1cn(Cc2ccc(-c3noc(C(F)(F)F)n3)cc2)nn1` [Compound 1.7, [1-[[4-[5-(trifluoromethyl)-1,2,4-oxadiazol-3-yl]phenyl]methyl]triazol-4-yl]methyl acetate] displayed a melting point of 157.4 to 160.4 °C. In series [1], the pest or weed control at 200 ppm was at least 80%. Further, the pest or weed control at 200 ppm in series [3] is at least 80%. Further, in series [4], the inhibition of growth at 20 ppm is at least 80%. Also, the pest or weed control at 100 ppm in series [5] was at least 80%.
`FC(F)(F)c1nc(-c2ccc(Cn3cc(-c4ccsc4)nn3)cc2)no1` [Compound 1.8, 3-[4-[[4-(3-thienyl)triazol-1-yl]methyl]phenyl]-5-(trifluoromethyl)-1,2,4-oxadiazole]: the melting point is 160.2 to 163.9 °C. Moreover, the pest or weed control at 200 ppm in series [1] is at least 80%. Further, the pest or weed control at 200 ppm in series [2] is at least 80%. For the same compound, the inhibition of growth at 20 ppm in series [4] was at least 80%. In addition, the pest or weed control at 100 ppm in series [5] was at least 80%.
In the case of `CC1(C)CN=C(Cc2ccc(-c3noc(C(F)(F)F)n3)cc2)O1` [Compound 1.10, 3-[4-[(5,5-dimethyl-4H-oxazol-2-yl)methyl]phenyl]-5-(trifluoromethyl)-1,2,4-oxadiazole], the pest or weed control at 200 ppm in series [1], in series [2] and in series [3] was at least 80% in each case. The inhibition of growth at 20 ppm in series [4] is at least 80%. The pest or weed control at 100 ppm in series [5] was at least 80%.
Turning to `CCOCc1cn(Cc2ccc(-c3noc(C(F)(F)F)n3)cc2)nn1` [Compound 1.11, 3-[4-[[4-(ethoxymethyl)triazol-1-yl]methyl]phenyl]-5-(trifluoromethyl)-1,2,4-oxadiazole], the melting point was in the range of 115.7 to 117.6 °C. Besides, the pest or weed control at 200 ppm in series [1] was at least 80%. Further, the pest or weed control at 200 ppm in series [2] was at least 80%. For the same compound, the pest or weed control at 200 ppm in series [3] was at least 80%. For the same compound, the pest or weed control at 100 ppm in series [5] is at least 80%.
On to `COc1ccc(-c2cn(Cc3ccc(-c4noc(C(F)(F)F)n4)cc3)nn2)cc1` [Compound 1.12, 3-[4-[[4-(4-methoxyphenyl)triazol-1-yl]methyl]phenyl]-5-(trifluoromethyl)-1,2,4-oxadiazole], for which the melting point was in the range of 187.7 to 196.2 °C. The pest or weed control at 200 ppm in series [1] is at least 80%. In addition, the pest or weed control at 100 ppm in series [5] was at least 80%.
On to `Fc1ccc(-c2cn(Cc3ccc(-c4noc(C(F)(F)F)n4)cc3)nn2)cc1` [Compound 1.13, 3-[4-[[4-(4-fluorophenyl)triazol-1-yl]methyl]phenyl]-5-(trifluoromethyl)-1,2,4-oxadiazole], for which the melting point is 185.3 to 189 °C. Further, the pest or weed control at 100 ppm in series [5] is at least 80%.
In the same order, the values of `Cc1ccc(-c2cn(Cc3ccc(-c4noc(C(F)(F)F)n4)cc3)nn2)cc1` [Compound 1.14, 3-[4-[[4-(p-tolyl)triazol-1-yl]methyl]phenyl]-5-(trifluoromethyl)-1,2,4-oxadiazole] are 200.6 to 204.2 °C and at least 80%.
In the case of `FC(F)c1cc(C(F)F)n(Cc2ccc(-c3noc(C(F)(F)F)n3)cc2)n1` [Compound 1.17, 3-[4-[[3,5-bis(difluoromethyl)pyrazol-1-yl]methyl]phenyl]-5-(trifluoromethyl)-1,2,4-oxadiazole], the melting point fell in the range of 53 to 58 °C. Besides, the pest or weed control at 200 ppm in series [3] is at least 80%. The inhibition of growth at 20 ppm in series [4] is at least 80%. Moreover, the pest or weed control at 100 ppm in series [5] was at least 80%.
Consider `Cc1cc(C(F)(F)F)nn1Cc1ccc(-c2noc(C(F)(F)F)n2)cc1` [Compound 1.20, 3-[4-[[5-methyl-3-(trifluoromethyl)pyrazol-1-yl]methyl]phenyl]-5-(trifluoromethyl)-1,2,4-oxadiazole], for which the pest or weed control at 200 ppm in series [3] was at least 80%. Also, in series [4], the inhibition of growth at 20 ppm was at least 80%. The pest or weed control at 100 ppm in series [5] was at least 80%.
